Experimental data as given in patent publication JPH07501070A, “3−ピリジノール誘導体およびその医薬的使用” (スミスクライン・ビーチャム・パブリック・リミテッド・カンパニー, priority 1991, dated 1993).

System: guinea pig trachea [モルモット・気管]
Assay: Bronchodilation in vitro (spontaneous tension of tracheal spirals)
Settings: Cavia porcellus, Krebs solution, cumulative addition, read-out: IC50 (concentration inhibiting spontaneously generated tension by 50%)

CCOP(=O)(O)c1ncc(-c2ccc3ccccc3c2)cc1O [実施例1, [5−(2−ナフチル)−3−ヒドロキシ−2−ピリジル]ホスホン酸エチル] gave an IC50 of 100 µM.
